Measurements published in ChEMBL document CHEMBL1122523, “2-[[[2-(2,6-Dimethoxyphenoxy)ethyl]amino]-methyl] -1,4-benzoxathian: a new antagonist with high potency and selectivity toward alpha 1-adrenoreceptors” (J Med Chem, 1984).

What was measured:
[1] = molecular target: T1, Adrenergic receptor alpha-2 (Rattus norvegicus, UniProt P22086+P19328+P22909); experiment: Alpha-2 adrenergic receptor antagonist activity against agonist (clonidine) in isolated rat vas deferens; assay type: functional, tissue-based
T1 sequence (P22086 whole entry): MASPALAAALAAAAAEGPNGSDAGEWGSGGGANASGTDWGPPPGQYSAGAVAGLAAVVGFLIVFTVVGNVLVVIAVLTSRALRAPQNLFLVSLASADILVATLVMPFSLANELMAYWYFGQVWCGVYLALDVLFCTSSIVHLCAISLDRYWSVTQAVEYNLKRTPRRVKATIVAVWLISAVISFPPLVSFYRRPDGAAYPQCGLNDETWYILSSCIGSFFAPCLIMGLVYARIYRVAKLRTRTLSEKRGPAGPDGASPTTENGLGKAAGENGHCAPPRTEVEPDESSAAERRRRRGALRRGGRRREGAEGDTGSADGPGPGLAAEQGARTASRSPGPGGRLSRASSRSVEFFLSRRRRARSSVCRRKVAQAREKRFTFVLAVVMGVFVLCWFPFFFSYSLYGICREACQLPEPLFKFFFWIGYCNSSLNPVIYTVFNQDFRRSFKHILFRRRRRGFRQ
T1 sequence (P19328 whole entry): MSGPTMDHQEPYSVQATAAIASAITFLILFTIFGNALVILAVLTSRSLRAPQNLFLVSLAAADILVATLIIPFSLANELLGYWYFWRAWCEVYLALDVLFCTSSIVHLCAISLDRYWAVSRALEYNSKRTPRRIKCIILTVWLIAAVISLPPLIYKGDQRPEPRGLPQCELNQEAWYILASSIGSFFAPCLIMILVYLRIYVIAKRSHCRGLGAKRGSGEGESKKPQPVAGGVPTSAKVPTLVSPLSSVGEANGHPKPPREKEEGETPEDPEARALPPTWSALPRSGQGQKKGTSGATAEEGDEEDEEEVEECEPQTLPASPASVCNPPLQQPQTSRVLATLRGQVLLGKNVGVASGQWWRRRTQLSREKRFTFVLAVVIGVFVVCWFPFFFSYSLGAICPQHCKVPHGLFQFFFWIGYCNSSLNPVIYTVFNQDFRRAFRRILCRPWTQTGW
T1 sequence (P22909 whole entry): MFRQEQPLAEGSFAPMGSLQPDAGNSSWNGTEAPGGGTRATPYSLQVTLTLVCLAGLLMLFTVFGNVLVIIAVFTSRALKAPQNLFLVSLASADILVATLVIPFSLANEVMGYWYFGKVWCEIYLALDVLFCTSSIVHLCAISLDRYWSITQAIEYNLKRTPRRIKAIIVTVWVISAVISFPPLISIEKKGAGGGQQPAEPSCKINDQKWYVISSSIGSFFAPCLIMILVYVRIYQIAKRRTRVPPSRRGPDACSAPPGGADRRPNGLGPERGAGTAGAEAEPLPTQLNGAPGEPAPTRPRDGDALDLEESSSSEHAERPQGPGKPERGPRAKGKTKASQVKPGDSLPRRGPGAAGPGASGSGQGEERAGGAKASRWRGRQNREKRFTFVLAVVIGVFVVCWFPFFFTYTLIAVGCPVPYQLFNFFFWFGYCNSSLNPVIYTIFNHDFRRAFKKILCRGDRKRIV

[2] = molecular target: T2, Adrenergic receptor alpha-1 (Rattus norvegicus, UniProt P15823+P23944+P43140); experiment: Alpha-1 adrenergic receptor antagonist activity against agonist (norepinephrine) in isolated rat vas deferens; assay type: functional, tissue-based
T2 sequence (P15823 whole entry): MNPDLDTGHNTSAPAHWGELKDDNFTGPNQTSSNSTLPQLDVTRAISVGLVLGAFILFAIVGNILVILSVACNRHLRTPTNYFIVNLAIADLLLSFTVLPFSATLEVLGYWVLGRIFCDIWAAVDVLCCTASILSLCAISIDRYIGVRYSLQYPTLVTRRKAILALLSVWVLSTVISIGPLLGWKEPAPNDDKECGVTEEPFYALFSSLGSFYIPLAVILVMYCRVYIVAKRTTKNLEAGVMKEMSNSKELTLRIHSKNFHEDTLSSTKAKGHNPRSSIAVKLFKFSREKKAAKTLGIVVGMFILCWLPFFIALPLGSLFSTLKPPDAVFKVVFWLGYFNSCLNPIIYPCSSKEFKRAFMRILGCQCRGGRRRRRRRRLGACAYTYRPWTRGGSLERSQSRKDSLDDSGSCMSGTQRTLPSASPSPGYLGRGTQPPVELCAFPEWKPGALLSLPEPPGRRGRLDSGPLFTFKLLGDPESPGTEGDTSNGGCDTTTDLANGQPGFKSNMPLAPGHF
T2 sequence (P23944 whole entry): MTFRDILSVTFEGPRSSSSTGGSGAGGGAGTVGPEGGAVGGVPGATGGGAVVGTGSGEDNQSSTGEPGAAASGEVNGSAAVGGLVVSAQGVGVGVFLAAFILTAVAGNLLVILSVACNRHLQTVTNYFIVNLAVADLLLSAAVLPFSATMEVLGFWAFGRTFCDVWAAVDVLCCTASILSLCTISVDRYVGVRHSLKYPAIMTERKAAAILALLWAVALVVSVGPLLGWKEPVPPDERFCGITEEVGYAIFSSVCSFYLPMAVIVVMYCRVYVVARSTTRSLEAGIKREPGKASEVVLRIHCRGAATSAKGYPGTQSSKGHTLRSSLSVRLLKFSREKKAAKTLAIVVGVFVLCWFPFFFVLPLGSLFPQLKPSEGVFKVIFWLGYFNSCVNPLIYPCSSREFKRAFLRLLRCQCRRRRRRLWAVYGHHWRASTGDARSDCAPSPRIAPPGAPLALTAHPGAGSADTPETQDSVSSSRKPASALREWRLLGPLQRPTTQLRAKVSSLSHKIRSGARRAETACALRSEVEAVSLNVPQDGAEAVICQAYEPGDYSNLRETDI
T2 sequence (P43140 whole entry): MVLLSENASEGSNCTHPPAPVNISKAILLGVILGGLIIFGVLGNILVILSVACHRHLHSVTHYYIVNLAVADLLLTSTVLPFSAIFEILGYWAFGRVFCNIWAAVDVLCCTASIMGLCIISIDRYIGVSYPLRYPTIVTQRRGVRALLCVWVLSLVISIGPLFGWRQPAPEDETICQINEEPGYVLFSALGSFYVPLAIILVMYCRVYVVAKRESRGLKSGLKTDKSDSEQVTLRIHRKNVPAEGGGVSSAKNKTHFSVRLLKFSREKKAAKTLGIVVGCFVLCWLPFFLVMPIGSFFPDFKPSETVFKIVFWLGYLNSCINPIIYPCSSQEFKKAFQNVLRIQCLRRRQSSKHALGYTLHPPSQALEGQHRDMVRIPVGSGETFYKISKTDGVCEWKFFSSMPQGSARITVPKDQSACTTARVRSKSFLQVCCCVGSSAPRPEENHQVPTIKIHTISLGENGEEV

Row | SMILES | pA2 [1] | pA2 [2]
1 | COc1cccc(OC)c1OCCNCC1CSc2ccccc2O1.Cl (centres undefined) [BENOXATHIAN HYDROCHLORIDE] | 6.26 | 9.26
2 | COc1cccc(OC)c1OCCNCC1COc2ccccc2O1.Cl (centres undefined) [2- (2,6-DIMETHOXYPHENOXYETHYL)AMINOMETHYL-1,4-BENZODIOXANE HYDROCHLORIDE (WB 4101)] | 6.29 | 8.83
